Experimental data published in patent publication US10167299B2, “1-(3-aminopropyl) substituted cyclic amine compounds, preparation method therefor, and pharmaceutical compositions and uses thereof” (SHANGHAI INSTITUTE OF MATERIA MEDICA, CHINESE ACADEMY OF …, priority 2013, dated 2019).
In brackets after ≈: the same amount, converted by molar mass. Like-named read-outs stand apart in the source and are kept apart here.

Experiments:
[1] = target: CCR5 (Homo sapiens (Human), UniProt P51681); test: Calcium flux inhibition experiment; type: cell-based; conditions: for IC50: HEK293/CCR5-Gα16 cell line, calcium flux, read-out: CCR5 IC50; for calcium influx inhibition effect in words, versus positive control compounds: conclusion from Table 1
[2] = tested on: CCR5 protein; test: Thermal stability of protein test (CPM-assay); type: binding; conditions: for Tm (° C.): thermal stability of CCR5 protein with compound, CPM dye
From the text: Experimental theory: many cysteines are present in CCR5 protein sequence. Cysteines located in loop region form disulfide bonds to stabilize the tertiary structure of the protein. Some free cysteines in reduced state are located in the transmembrane region. Under excitation by incident light of 387 nm, the combination of free sulfhydryl and fluorescent dye CPM can emit excitation light of 436 nm. […] The free sulfhydryls originally located in the transmembrane region expose and combine with the fluorescent dye. And then the detector will detect changes in signal enhancement. Therefore, the thermal stability of membrane proteins can be determined according to the temperature (Tm) at the midpoint of changes in signal intensity.
Experimental steps: Upon preliminary purification, the obtained protein solution was transferred into a small concentration tube (100 kd, 500 ul) for concentration (1000 rcf, 12 min, 4° C.). After centrifugation, the concentration tube was taken out and flicked to prevent protein coagulation due to high local concentration. The final concentrated volume was about 50 μl. 117 μl of purified solution (volume is suitable to make the total volume up to 120 μl), 1 μl fluorescent dye cpm (in-house prepared) and 2 μl of concentrated protein solution (the amount of added protein is 3-5 μg according to the calculated concentration of the protein solution and the concentrated volume) were added to 2 ml Ependorf tube and incubated at room temperature for 20 min. And then the mixture was added to the cuvette (Qwan) and put in the testing equipment Cary, wherein the surface of the frosted glass faced out. The temperature was set in the range of 4-90° C. with 1° C. increase per minute and the program was run. Tm value can be obtained by processing the data and graph with a mapping software and can be used to compare the difference of protein thermal stability under different conditions.

[3] = Cytotoxicity (CC50) in TZM-bl cells; type: cell-based; conditions: human
[4] = tested on: HIV-1SF162 virus strain; test: Inhibition activity on TZM-bl cells infected with HIV-1SF162; conditions: for EC50: Human immunodeficiency virus 1, TZM-bl; for therapeutic index (TI): TZM-bl cells infected with HIV-1SF162
[5] = target: hERG (Homo sapiens (Human), UniProt Q12809)
Method: CHO-hERG cells which have been incubated overnight were added with sample buffer and incubated for 90 minutes at room temperature in darkness.
The sample buffer was removed and assay buffer was added.
The compound is added to the cell plate and incubated for 20 minutes in darkness.
Cell plate was placed into FDSS. The fluorescence signal was recorded every second for 10 seconds. Exciting buffer was added to the cells at the 10th second and the fluorescence signal was recorded every second for 180 seconds

[6] = tested on: Salmonella typhimurium strain TA98; test: Bacterial reverse mutation assay TA98 (-S9); type: cell-based; conditions: TA98, -S9, positive control 20 μg/dish
Method: (§1) The mutagenic effects of compounds 18 and 22 of the present invention on Salmonella typhimurium strains TA98 and TA100 in non-metabolic activation (-S9) condition were determined. Two strains, TA98 and TA100 were chosen in bacterial reverse mutation assay for compounds 18 and 22. 9 doses containing […], negative and positive controls were set in experiments. 3 dishes were used for each dose. The experiment was carried out under -S9 condition.

[7] = tested on: Salmonella typhimurium strain TA100; test: Bacterial reverse mutation assay TA100 (-S9); type: cell-based; conditions: TA100, -S9, positive control 1300 μg/dish
Method: as §1

[8] = TZM-bl cells (Table 3), read-out: CC50

Chain of CCR5 (P51681 whole entry): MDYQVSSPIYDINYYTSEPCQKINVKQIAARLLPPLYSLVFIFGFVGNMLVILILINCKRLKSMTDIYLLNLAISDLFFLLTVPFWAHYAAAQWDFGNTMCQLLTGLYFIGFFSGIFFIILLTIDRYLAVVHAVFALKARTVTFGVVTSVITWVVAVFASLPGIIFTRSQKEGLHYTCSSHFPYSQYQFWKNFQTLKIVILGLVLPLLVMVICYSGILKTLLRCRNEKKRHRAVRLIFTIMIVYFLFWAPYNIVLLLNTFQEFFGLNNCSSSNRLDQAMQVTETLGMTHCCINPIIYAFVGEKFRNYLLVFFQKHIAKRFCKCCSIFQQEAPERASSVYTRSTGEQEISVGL
Chain of hERG (Q12809 whole entry): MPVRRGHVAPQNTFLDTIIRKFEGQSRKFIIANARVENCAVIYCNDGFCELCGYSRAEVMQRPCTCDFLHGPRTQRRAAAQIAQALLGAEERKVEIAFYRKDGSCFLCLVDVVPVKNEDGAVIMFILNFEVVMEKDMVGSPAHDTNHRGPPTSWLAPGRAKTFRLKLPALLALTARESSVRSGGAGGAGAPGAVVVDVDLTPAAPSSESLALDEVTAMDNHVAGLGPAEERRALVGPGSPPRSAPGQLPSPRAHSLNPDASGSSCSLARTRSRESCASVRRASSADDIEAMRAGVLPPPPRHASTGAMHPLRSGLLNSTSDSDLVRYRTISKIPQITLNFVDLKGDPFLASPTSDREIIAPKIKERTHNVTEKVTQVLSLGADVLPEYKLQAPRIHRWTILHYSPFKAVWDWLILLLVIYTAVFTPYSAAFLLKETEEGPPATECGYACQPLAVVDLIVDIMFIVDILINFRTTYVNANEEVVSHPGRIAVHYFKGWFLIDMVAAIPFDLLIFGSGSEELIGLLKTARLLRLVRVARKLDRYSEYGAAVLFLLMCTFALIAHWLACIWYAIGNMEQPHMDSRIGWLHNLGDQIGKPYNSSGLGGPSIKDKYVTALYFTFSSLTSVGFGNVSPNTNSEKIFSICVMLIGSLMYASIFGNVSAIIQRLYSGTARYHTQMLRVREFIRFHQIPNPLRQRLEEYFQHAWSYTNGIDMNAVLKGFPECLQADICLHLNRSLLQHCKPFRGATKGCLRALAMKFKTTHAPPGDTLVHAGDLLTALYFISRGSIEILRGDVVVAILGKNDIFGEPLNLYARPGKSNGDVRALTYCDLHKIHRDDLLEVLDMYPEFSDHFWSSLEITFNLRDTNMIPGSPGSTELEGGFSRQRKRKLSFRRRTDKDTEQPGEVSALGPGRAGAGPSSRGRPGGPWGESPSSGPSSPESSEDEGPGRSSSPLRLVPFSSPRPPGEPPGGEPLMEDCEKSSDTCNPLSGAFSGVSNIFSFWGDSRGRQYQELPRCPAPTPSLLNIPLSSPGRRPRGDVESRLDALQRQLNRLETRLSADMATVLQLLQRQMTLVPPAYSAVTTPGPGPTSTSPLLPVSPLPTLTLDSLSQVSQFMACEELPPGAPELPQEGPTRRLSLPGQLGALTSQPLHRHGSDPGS

| SMILES | IC50 [1] [nM] | Tm (° C.) [2] [°C] | CC50 [3, 8] [µg/mL] | EC50 [4] [µg/mL] | therapeutic index (TI) [4] | further results |
| --- | --- | --- | --- | --- | --- | --- |
| Cc1nnc(C(C)C)n1C1CCN(CC[C@H](NC(=O)C2CCCCC2)c2cccs2)CC1 [Compound 15, N-[(1S)-3-[4-(3-isopropyl-5-methyl-4H-1,2,4-triazol-4-yl)-piperidin-1-yl]-1-(thiophen-2-yl)propyl]cyclohexane-1-carboxamide] | 9.22 | 64.30 | > 200 | 0.316 (≈ 0.69 µM) | >632.87 | calcium influx inhibition effect in words, versus positive control compounds [1]: comparable to the positive control compounds |
| Cc1sc([C@H](CCN2C3CCC2CC(n2c(C)nnc2C(C)C)C3)NC(=O)C2CCC(F)(F)CC2)c(C)c1C (stereo partly drawn) [Compound 103, 4,4-difluoro-N-[(1S)-3-[exo-3-(3-isopropyl-5-methyl-4H-1,2,4-triazol-4-yl)-8-azabicyclo[3.2.1]octane-8-yl]-1-(3,4,5-trimethylthiophen-2-yl)propyl]cyclohexane-1-carboxamide] |  |  |  |  |  | IC50 [5]: 3470 nM |
| Cc1nnc(C(C)C)n1C1CCN(CC[C@H](NC(=O)C2CCC(F)(F)CC2)c2cccs2)CC1 [Compound 13, 4,4-difluoro-N-[(1S)-3-[4-(3-isopropyl-5-methyl-4H-1,2,4-triazol-4-yl)-piperidin-1-yl]-1-(thiophen-2-yl)propyl]cyclohexane-1-carboxamide] | 3.4 | 65.32 | > 100 | 0.183 (≈ 0.371 µM) | >1093.14 | calcium influx inhibition effect in words, versus positive control compounds [1]: better than the positive control compounds |
| Cc1nnc(C(C)C)n1C1CCN(CC[C@H](NC(=O)C2CCCCC2)c2cccnc2)CC1 [Compound 7, N-[(1S)-3-[4-(3-isopropyl-5-methyl-4H-1,2,4-triazol-4-yl)-piperidin-1-yl]-1-(pyridin-3-yl)propyl]cyclohexane-1-carboxamide] | 35.2 | 57.21 | > 100 | 2.34 (≈ 5.17 µM) | 50.31 |  |
| Cc1nnc(C(C)C)n1C1CCN(CCC(NC(=O)C2CCC(F)(F)CC2)c2cccs2)CC1 (stereo not shown) [Compound 1, 4,4-difluoro-N-[3-[4-(3-isopropyl-5-methyl-4H-1,2,4-triazol-4-yl)-piperidin-1-yl]-1-(thiophen-2-yl)propyl]cyclohexane-1-carboxamide] | 36.6 | 60.59 | > 100 | 0.29 (≈ 0.587 µM) | >340.14 |  |
| Cc1nnc(C(C)C)n1C1CC2CCC(C1)N2CC[C@H](NC(=O)C1CCCC1)c1ccsc1 (stereo partly drawn) [Compound 26, N-[(1S)-3-[exo-3(3-isopropyl-5-methyl-4H-1,2,4-triazol-4-yl)-8-azabicyclo[3.2.1]octane-8-yl]-1-(thiophen-3-yl)propyl]cyclopentane-1-carboxamide] | 5.06 | 71.02 |  | 0.00558 (≈ 0.0119 µM) | >35842.29 | calcium influx inhibition effect in words, versus positive control compounds [1]: better than the positive control compounds; protein stability effect in words, versus positive control compound ([2]; conclusion from Table 2): comparable with the positive control compound; CC50 [3]: > 200 µg/mL; cytotoxicity in vitro and therapeutic index in words, versus positive control compound ([4]; TZM-bl cells infected with HIV-1SF162, conclusion from Table 3): better than positive control compound |
| Cc1nnc(C(C)C)n1C1CC2CCC(C1)N2CC[C@H](NC(=O)C1CCCCC1)c1ccsc1 (stereo partly shown) [Compound 24] | 44.6 | 62.31 |  |  |  |  |
| Cc1nnc(C(C)C)n1C1CCN(CC[C@H](NC(=O)C2CCCC2)c2ccsc2)CC1 [Compound 25, N-[(1S)-3-[4-(3-isopropyl-5-methyl-4H-1,2,4-triazol-4-yl)-piperidin-1-yl]-1-(thiophen-3-yl)propyl]cyclopentane-1-carboxamide] | 37.9 | 62.31 | > 200 | 0.168 (≈ 0.379 µM) | >1190.41 |  |
| CC(=O)NC(CCN1CCC(n2c(C)nnc2C(C)C)CC1)c1cccs1 (stereo not shown) [Compound 2, N-[3-[4-(3-isopropyl-5-methyl-4H-1,2,4-triazol-4-yl)-piperidin-1-yl]-1-(thiophen-2-yl)propyl]acetamide] | 32.6 | 65.23 | > 100 | 0.326 (≈ 0.837 µM) | >306.75 |  |
| CCC1CCC(C(=O)N[C@@H](CCN2C3CCC2CC(n2c(C)nnc2C(C)C)C3)c2cccs2)CC1 (stereo partly shown) [Compound 19] | 21.5 | 69.20 |  | 0.00959 (≈ 0.0187 µM) | 8940.56 | CC50 [3]: 85.7 µg/mL (≈ 168 µM) |
| Cc1nnc(C(C)C)n1C1CCN(CC[C@H](NC(=O)C2CCCCC2)c2ccsc2)CC1 [Compound 23, N-[(1S)-3-[4-(3-isopropyl-5-methyl-4H-1,2,4-triazol-4-yl)-piperidin-1-yl]-1-(thiophen-3-yl)propyl]cyclohexane-1-carboxamide] | 27.3 | 63.90 | > 200 | 0.06 (≈ 0.131 µM) | >3332.78 |  |
| Cc1nnc(C(C)C)n1C1CCN(CC[C@H](NC(=O)C2CCCC2)c2cccnc2)CC1 [Compound 9, N-[(1S)-3-[4-(3-isopropyl-5-methyl-4H-1,2,4-triazol-4-yl)-piperidin-1-yl]-1-(pyridin-3-yl)propyl]cyclopentane-1-carboxamide] | 79.3 | 61.32 | > 100 | 1.81 (≈ 4.13 µM) | 55.42 |  |
| CC(=O)N[C@@H](CCN1C2CCC1CC(n1c(C)nnc1C(C)C)C2)c1cccs1 (stereo partly drawn) [Compound 12, N-[(1S)-3-[exo-3-(3-isopropyl-5-methyl-4H-1,2,4-triazol-4-yl)-8-azabicyclo[3.2.1]octane-8-yl]-1-(thiophen-2-yl)propyl]acetamide] |  |  |  |  |  | hERG inhibition activity in words, versus positive control compounds [5]: better that those of positive control compounds |
| O=[N+]([O-])c1ccc2c(c1)Cc1ccccc1-2 [2-Nitroflucrene, reference compound] |  |  |  |  |  | number of revertant colonies (Mean ± SD) [6]: 999 ± 145.2 |
| Cc1nnc(C(C)C)n1C1CCN(CC[C@H](NC(=O)C2CCC(F)(F)CC2)c2cccnc2)CC1 [Compound 5, 4,4-difluoro-N-[(1S)-3-[4-(3-isopropyl-5-methyl-4H-1,2,4-triazol-4-yl)-piperidin-1-yl]-1-(pyridin-3-yl)propyl]cyclohexane-1-carboxamide] | 29.7 | 57.31 |  |  |  |  |
| CC(=O)NC(CCN1C2CCC1CC(n1c(C)nnc1C(C)C)C2)c1cccs1 (stereo not drawn) [Compound 4, N-[3-[exo-3-(3-isopropyl-5-methyl-4H-1,2,4-triazol-4-yl)-8-azabicyclo[3.2.1]octane-8-yl]-1-(thiophen-2-yl)propyl]acetamide] | 15 | 65.64 | 42.8 (≈ 103 µM) | 1.46 (≈ 3.51 µM) | 29.29 |  |
| COS(C)(=O)=O [Methyl methanesulfonate, reference compound] |  |  |  |  |  | number of revertant colonies (Mean ± SD) [7]: 1231 ± 146.1 |
| Cc1nnc(C(C)C)n1C1CCN(CC[C@H](NC(=O)C2CCC(F)(F)CC2)c2ccsc2)CC1 [Compound 21, 4,4-difluoro-N-[(1S)-3-[4-(3-isopropyl-5-methyl-4H-1,2,4-triazol-4-yl)-piperidin-1-yl]-1-(thiophen-3-yl)propyl]cyclohexane-1-carboxamide] | 11.9 | 64.68 | > 200 | 0.15 (≈ 0.304 µM) | >1333.96 | calcium influx inhibition effect in words, versus positive control compounds [1]: comparable to the positive control compounds |
| Cc1nnc(C(C)C)n1C1CC2CCC(C1)N2CC[C@H](NC(=O)C1CCCC1)c1cccnc1 (stereo partly drawn) [Compound 10, N-[(1S)-3-[exo-3-(3-isopropyl-5-methyl-4H-1,2,4-triazol-4-yl)-8-azabicyclo[3.2.1]octane-8-yl]-1-(pyridin-3-yl)propyl]cyclopentane-1-carboxamide] | 36.6 | 63.21 |  | 1.42 (≈ 3.06 µM) | >70.42 | CC50 [3]: > 100 µg/mL |
